{"source": "patent US6887862B2", "about": "“Method for improving treatment selectivity and efficacy using intravascular photodynamic therapy” (Miravant Systems, Inc., priority 2001, dated 2005)", "key": {"rat carotid artery": {"system": "rat carotid artery", "experiment": "Intravascular PDT treatment of rat carotid artery, histology (H&E) and clinical observation", "assay_type": "in vivo", "conditions": "for Adverse symptoms in animals / PDT-induced damage in surrounding tissue (histology) / Acellularity within the media (H&E): blue light approximately 458 nm; for Acellularity in the medial wall / PDT effect / damage in surrounding tissue: balloon blood exclusion", "from_the_text": "The central lumen of this catheter was designed to allow passage of an optical fiber having a diffuser at its distal end. The fiber was positioned such that the diffusing section was centered within the light delivery balloon, thereby providing intravascular light delivery with minimal absorption by blood. Excitation was typically provided by a laser source at the proximal end of the device, which was focused on the proximal end of the fiber-optic diffuser. Typical wavelengths used were 405 nm, 407 nm, 413 nm, 436 nm, 442 nm, 458 nm, 514 nm, 532 nm, and the general range of 570-610 nm.\nThe surgery was performed by doing a cutdown to allow access to the right femoral artery, followed by insertion of the light delivery catheter. The catheter was then passed up through the iliac and abdominal aorta, through the aortic arch and into the left carotid artery. Once in place, the balloon was inflated to approximately 1 atmosphere using a standard angioplasty inflation device. This caused the balloon to expand to the diameter of the artery, while still allowing the pressure to be kept low enough to prevent significant over-stretch of the artery.\nPrior to this surgery, the rats were injected with a photosensitizer drug to allow uptake of the drug into the target tissues. […] Induction of acellularity is believed to inhibit intimal hyperplasia, the most common cause of restenosis in post-angioplasty patients.\nFIG. 1 is a low magnification image of a tissue cross section taken from the throat of a rat that has received PDT therapy using intravascular red light. […] (A bare fiber diffuser was used here since complete blood elimination is not necessary at this wavelength due to the relatively high penetration of light through blood at this wavelength.) The animal was sacrificed 4 days after the PDT treatment, the throat section was harvested, embedded and stained using hematoxylin and eosin (H&E). […] A balloon was placed around the fiber light diffuser here since it is important to eliminate blood at these wavelengths due to the optical absorption of hemoglobin. […] The animal was sacrificed 5 days after the PDT treatment, the throat section was harvested, embedded and stained using hematoxylin and eosin (H&E). […] In fact, it is widely believed that viable smooth muscle cells in the media and adventia are the source of the proliferating cells that are responsible for restenosis.\nIn FIG. 9, the results are listed in the columns titled Max. Accell., listing the acellularity measured in the section for which the acellularity was highest and Sur. Tissue Damage, listing the degree of surrounding tissue damage. […] The desired objective was to achieve significant acellularity with minimal damage to surrounding tissue."}, "coronary artery": {"system": "coronary artery", "experiment": "Intravascular PDT treatment of swine coronary artery, heart harvested after treatment", "assay_type": "in vivo"}, "[1]": {"experiment": "Uptake of the drug within the target tissues by fluorescence microscopy and HPLC", "assay_type": "in vivo", "conditions": "rat, systemic administration", "method": "Prior to this surgery, the rats were injected with a photosensitizer drug to allow uptake of the drug into the target tissues. Uptake of the drug within the target tissues was confirmed by fluorescence microscopy and high pressure liquid chromatography (HPLC). […] Induction of acellularity is believed to inhibit intimal hyperplasia, the most common cause of restenosis in post-angioplasty patients. […] To our knowledge, such efficacy using intravascular light has never been achieved previously with PDT. […] This was notable since the target tissues appeared to contain a higher drug concentration and they were also located closest to the light source."}, "[2]": {"experiment": "Optical absorption spectrum of MV6401", "assay_type": "physicochemical", "conditions": "near 458 nm and 532 nm (FIG. 8)"}, "[3]": {"conditions": "rat carotid, approximately 4 hours after drug injection (FIG. 14)"}, "[4]": {"conditions": "rat carotid, intravascular light at wavelengths within the disclosed 390-610 nm range"}, "[5]": {"conditions": "intravascular red light, high PDT doses"}, "[6]": {"conditions": "rat carotid, approximately 2 hours after drug injection (FIG. 15)"}}, "note": "Entries after “also recorded” stand apart in the source; their conditions may differ."}
{"compound": "CC(=O)[O-].CC(=O)[O-].CCc1c(CC)c2cc3nc(cnc4cc(OCCOCCOCCOC)c(OCCOCCOCCOC)cc4ncc4nc(cc1[n-]2)C(CCCO)=C4C)C(C)=C3CCCO.O.[Lu+3]", "note": "[LuTex, lutetium texaphyrin]", "values": [{"measurement": "Adverse symptoms in animals", "setting": "rat carotid artery; [3]", "result": "no animals displayed adverse symptoms"}, {"measurement": "PDT-induced damage in surrounding tissue (histology)", "setting": "rat carotid artery; [3]", "result": "minimal evidence of PDT-induced damage in surrounding tissue"}, {"measurement": "Acellularity within the media (H&E)", "setting": "rat carotid artery; rat carotid, approximately 4 hours after drug injection, 3 days after PDT (FIG. 14)", "result": "nearly complete acellularity within the media"}, {"measurement": "Acellularity in the medial wall", "setting": "rat carotid artery; [4]", "result": "acellularity was induced in the medial wall"}, {"measurement": "PDT effect / damage in surrounding tissue", "setting": "rat carotid artery; [4]", "result": "largely sparing the surrounding tissue"}]}
{"compound": "C=Cc1c(C)c2[n]3c1=CC1=NC(=Cc4c(C)c5c([n]4[In]3[Cl])C(=C3N=C(C=2)[C@@H](C)[C@@H]3CCC(=O)OC)CC5=O)C(CC)=C1C", "note": "[MV6401]", "values": [{"measurement": "Clinical evidence of adverse PDT treatment effect", "setting": "rat carotid artery; [4]", "result": "no clinical evidence of an adverse PDT treatment effect"}, {"measurement": "Acellularity in the medial wall", "setting": "rat carotid artery; [4]", "result": "acellularity was induced within the medial wall; also recorded: acellularity was induced in the medial wall"}, {"measurement": "PDT effect / damage in surrounding tissue", "setting": "rat carotid artery; [4]", "result": "very minimal PDT effect in the surrounding tissue; also recorded: largely sparing the surrounding tissue"}, {"measurement": "PDT treatment effect in the target tissue (histology)", "setting": "rat carotid artery; rat carotid, intravascular red/infrared light", "result": "little or no PDT treatment effects in the target tissue"}, {"measurement": "Clinical symptoms", "setting": "rat carotid artery; rat, 2 μmol/kg systemic, 458 nm, 100 J/cm^2, light 4 hours post drug (FIG. 3)", "result": "no adverse clinical symptoms"}, {"measurement": "Acellularity in the vessel wall", "setting": "rat carotid artery; rat, 2 μmol/kg systemic, 458 nm, 100 J/cm^2, light 4 hours post drug (FIG. 4)", "result": "complete acellularity was induced in the vessel wall"}, {"measurement": "Surrounding tissue damage (inflammation and necrosis, H&E)", "setting": "rat carotid artery; rat, 2 μmol/kg systemic, 458 nm, 100 J/cm^2, light 4 hours post drug, balloon device, sacrificed 5 days after PDT (FIG. 3)", "result": "minimal PDT-induced inflammation and necrosis"}, {"measurement": "Acellularity within the vessel media and adventia", "setting": "coronary artery; blue (458 nm) or green (532 nm) intravascular light, surrounding tissue damage of the order of FIG. 6 and 7", "result": "complete acellularity can be achieved within the vessel media and adventia"}, {"measurement": "PDT-induced damage to myocardium / surrounding tissue", "setting": "coronary artery; intravascular blue light (458 nm) (FIG. 6)", "result": "minimal damage to the myocardium"}, {"measurement": "PDT-induced damage to myocardium / surrounding tissue", "setting": "coronary artery; intravascular green light (532 nm) (FIG. 7)", "result": "minimal damage to the myocardium"}, {"measurement": "Acellularity in media or adventia of the vessel", "setting": "coronary artery; [5]", "result": "insignificant acellularity was induced in the media or adventia of the vessel"}, {"measurement": "Clinical reactions", "setting": "coronary artery; [5]", "result": "severe adverse clinical reactions"}, {"measurement": "Localization / uptake of photosensitizer in target tissue versus surrounding tissue", "setting": "[1]", "result": "more strongly localized in the target tissue; also recorded: taken up preferentially in the target vessel tissue"}, {"measurement": "Absorption (molar extinction coefficient)", "setting": "[2]", "result": "> 1000", "unit": "L cm^−1 M^−1"}]}
{"compound": "O=C([O-])c1c(Cl)c(Cl)c(Cl)c(Cl)c1-c1c2cc(I)c(=O)c(I)c-2oc2c(I)c([O-])c(I)cc12.[Na+].[Na+]", "note": "[Rose Bengal]", "values": [{"measurement": "Acellularity in the medial wall", "setting": "rat carotid artery; [4]", "result": "acellularity was induced in the medial wall"}, {"measurement": "PDT effect / damage in surrounding tissue", "setting": "rat carotid artery; [4]", "result": "largely sparing the surrounding tissue"}]}
{"compound": "benzoporphyrin derivative [BPD]", "values": [{"measurement": "Adverse symptoms in animals", "setting": "rat carotid artery; [6]", "result": "no animals displayed adverse symptoms"}, {"measurement": "PDT-induced damage in surrounding tissue (histology)", "setting": "rat carotid artery; [6]", "result": "minimal evidence of PDT-induced damage in surrounding tissue"}, {"measurement": "Acellularity within the media (H&E)", "setting": "rat carotid artery; rat carotid, approximately 2 hours after drug injection, 3 days after PDT (FIG. 15)", "result": "nearly complete acellularity within the media"}, {"measurement": "Acellularity in the medial wall", "setting": "rat carotid artery; [4]", "result": "acellularity was induced in the medial wall"}, {"measurement": "PDT effect / damage in surrounding tissue", "setting": "rat carotid artery; [4]", "result": "largely sparing the surrounding tissue"}]}
